Among the data in US20250019377A1 (JACOBIO PHARMACEUTICALS CO., LTD, priority 2021, published 2025) are IC50 values, retold here.

For test [1], the system named is AsPC-1 cells (K-Ras G12D). In words: 2D cell growth inhibition assay, AsPC-1. In kind it is cell-based. Conditions: AsPC-1, K-Ras G12D, 6 days, absolute IC50.
Test [2] has as its target T1, K-Ras G12V (Homo sapiens, UniProt P01116, G12V). In words: biochemical.
Test [3] deals with p-ERK in AGS cells (K-Ras G12D). Put plainly: Phospho-ERK1/2(THR202/TYR204) HTRF assay, AGS. It counts as cell-based. Conditions: 2 hours incubation. (In general: TR-FRET usually uses a lanthanide donor and a delayed reading to cut background.)
Another test has as its system AGS cells (K-Ras G12D). In words: 2D cell growth inhibition assay, AGS. In kind it is cell-based. Conditions: 6 days, absolute IC50.
Test [4] concerns the target T1, K-Ras G12V. In words: SOS1 catalyzed nucleotide exchange assay (GDP form K-Ras), K-Ras G12V. The following applies: read-out: K-Ras G12V GDP Biochemical Activity (IC50).
For test [5], the target named is T2, K-Ras WT (Homo sapiens, UniProt P01116). In words: biochemical.
Test [6] deals with T2, K-Ras WT. Put plainly: SOS1 catalyzed nucleotide exchange assay (GDP form K-Ras), K-Ras WT. Conditions: read-out: K-Ras WT GDP Biochemical Activity (IC50).
Test [7] has as its system p-ERK in SW620 cells (K-Ras G12V). Put plainly: Phospho-ERK1/2(THR202/TYR204) HTRF assay, SW620. In kind it is cell-based. The following applies: 2 hours incubation.
Description: p-ERK (MAPK pathway) inhibition activity of each of compounds in a variety of K-Ras mutant and K-Ras WT cell lines indicated in Table 23 was evaluated.
Each of cells in culture medium was seeded in 96-well plates at density indicated in Table 23 and then put in a cell incubator to incubate overnight. The next day, the culture medium was removed and the compound diluted in assay medium was added in each well. […] 10 μL of cell lysates from the 96-well plates were transferred to a 384-well plate (Greiner) containing 2.5 μL/well HTRF® pre-mixed antibodies (Cisbio 64AERPEH). The plate was incubated 4 hours at 25° C. and then read HTRF signals on Tecan Spark multimode microplate reader. The data were analyzed using a 4-parameter logistic model to calculate IC50 values.
Another test relates to SW620 cells (K-Ras G12V). In words: 2D cell growth inhibition assay, SW620. It counts as cell-based. Conditions: 6 days, absolute IC50.
For the next test, the target named is K-Ras G12D (Homo sapiens, UniProt P01116, G12D). Put plainly: biochemical.

The structures appear in SMILES notation.

T2 sequence (P01116 1-169 isoform P01116-2): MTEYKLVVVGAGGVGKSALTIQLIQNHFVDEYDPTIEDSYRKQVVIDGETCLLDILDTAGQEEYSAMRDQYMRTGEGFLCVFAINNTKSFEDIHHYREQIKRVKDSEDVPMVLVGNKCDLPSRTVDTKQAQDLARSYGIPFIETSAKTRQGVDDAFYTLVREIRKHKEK
T1 sequence (P01116 1-169 isoform P01116-2 G12V): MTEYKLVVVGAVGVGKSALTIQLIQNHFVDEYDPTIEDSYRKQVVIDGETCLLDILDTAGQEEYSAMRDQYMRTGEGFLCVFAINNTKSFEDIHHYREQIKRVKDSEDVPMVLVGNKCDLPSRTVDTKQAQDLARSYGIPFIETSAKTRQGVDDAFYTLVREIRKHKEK
K-Ras G12D, sequence (P01116 1-169 isoform P01116-2 G12D): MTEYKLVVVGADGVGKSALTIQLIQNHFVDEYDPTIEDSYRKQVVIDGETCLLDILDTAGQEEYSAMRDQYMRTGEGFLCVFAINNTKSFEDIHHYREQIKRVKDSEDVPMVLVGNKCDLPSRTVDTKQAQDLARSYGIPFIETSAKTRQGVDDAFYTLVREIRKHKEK

One may read the IC50 as the concentration at which inhibition is half-maximal. As to `C#Cc1c(F)ccc2cc(O)cc(-c3ncc4c(N5CC6COC(C6)C5)nc(OC[C@@]56CCCN5C[C@H](F)C6)nc4c3F)c12` (single isomer, unassigned) [Compound 84A, 4-(4-((1R,5S)-6-oxa-3-azabicyclo[3.2.1]octan-3-yl)-8-fluoro-2-(((2R,7aS)-2-fluorotetra-hydro-1H-pyrrolizin-7a(5H)-yl)methoxy)pyrido[4,3-d]pyrimidin-7-yl)-5-ethynyl-6-fluoronaphthalen-2-ol or 4-(4-((1S,5R)-6-oxa-3-azabicyclo[3.2.1]octan-3-yl)-8-fluoro-2-(((2R,7aS)-2-fluorotetra-hydro-1H-pyrrolizin-7a(5H)-yl)methoxy)pyrido[4,3-d]pyrimidin-7-yl)-5-ethynyl-6-fluoronaphthalen-2-ol], the IC50 worked out at 1100 nM in test [1]; 3720 nM against K-Ras G12V [2]; 29.1 nM in test [3]; 203 nM in the test with AGS cells (K-Ras G12D); 3.43 nM on K-Ras G12V [4]; 2990 nM on K-Ras WT [5]. The IC50 at K-Ras WT [6] is 11.4 nM; in [7], 19.4 nM; with SW620 cells (K-Ras G12V), 60.6 nM.
For `C#Cc1c(F)ccc2cc(O)cc(-c3ncc4c(N5CCCOCC5)nc(OCC56CCCN5C[C@](C)(F)C6)nc4c3F)c12` (single isomer, unassigned) [Compound 32B], the half-maximal inhibitory concentration (IC50) in test [1] (Homo sapiens, ASPC1, 144 h) came to 135 nM; against K-Ras G12V [2], 69.7 nM; in [3] (Homo sapiens, 2 h) it was 12.1 nM; in the test on AGS cells (K-Ras G12D) (Homo sapiens, 144 h) it was 18.6 nM; at K-Ras G12V [4], 1.97 nM; on K-Ras WT [5] it was 77.4 nM. For the same compound, the IC50 at K-Ras WT [6] was 3.12 nM; in test [7] (Homo sapiens, SW-620, 2 h), 17.1 nM; with SW620 cells (K-Ras G12V) (Homo sapiens, SW-620, 144 h), 27.9 nM.
In the case of `C#Cc1c(F)ccc2cc(O)cc(-c3ncc4c(N5CCCO[C@@H](C)C5)nc(OC[C@@]56CCCN5C[C@H](F)C6)nc4c3F)c12` (single isomer, unassigned) [Compound 8A, trifluoroacetic acid], the IC50 was 608 nM in [1] (Homo sapiens, ASPC1, 144 h); 170 nM against K-Ras G12V [2]; 21.7 nM in [3] (Homo sapiens, 2 h); 98.1 nM in the test with AGS cells (K-Ras G12D) (Homo sapiens, 144 h); 2.49 nM at K-Ras G12V [4]; 255 nM on K-Ras WT [5]. For the same compound, the IC50 on K-Ras WT [6] came to 4.7 nM; in test [7] (Homo sapiens, SW-620, 2 h) it was 37.6 nM; in the test with SW620 cells (K-Ras G12V) (Homo sapiens, SW-620, 144 h), 133 nM.
`C#Cc1c(F)ccc2cc(O)cc(-c3c(SC(F)(F)F)cc4c(N5CCCOCC5)nc(OC[C@@]56CCCN5C[C@H](F)C6)nc4c3F)c12` [Compound 41, 5-ethynyl-6-fluoro-4-(8-fluoro-2-(((2R,7aS)-2-fluorotetrahydro-1H-pyrrolizin-7a(5H)-yl)methoxy)-4-(1,4-oxazepan-4-yl)-6-((trifluoromethyl)thio)quinazolin-7-yl)naphthalen-2-ol trifluoroacetic acid]: the IC50 in [1] (Homo sapiens, ASPC1, 144 h) was determined as 238 nM; against K-Ras G12V [2] it was 32.4 nM; in the test on AGS cells (K-Ras G12D) (Homo sapiens, 144 h) it was 62.2 nM; on K-Ras G12V [4], 6.88 nM; against K-Ras WT [5], 82.4 nM; on K-Ras WT [6] it was 14.9 nM. Further, in the test with SW620 cells (K-Ras G12V) (Homo sapiens, SW-620, 144 h), it took 88.8 nM to reach half-maximal inhibition (IC50).
On to `C#Cc1c(F)ccc2cc(O)cc(-c3ncc4c(N5CCCO[C@H](C)C5)nc(OC[C@@]56CCCN5C[C@H](F)C6)nc4c3F)c12` (single isomer, unassigned) [Compound 8B, trifluoroacetic acid], for which the IC50 in test [1] (Homo sapiens, ASPC1, 144 h) was 153 nM; against K-Ras G12V [2], 16.3 nM; in test [3] (Homo sapiens, 2 h) it was 5.94 nM; with AGS cells (K-Ras G12D) (Homo sapiens, 144 h), 27.4 nM; at K-Ras G12V [4], 1.53 nM; on K-Ras WT [5] it was 36.4 nM. The IC50 worked out at 1.71 nM on K-Ras WT [6]; 8.91 nM in test [7] (Homo sapiens, SW-620, 2 h); 19.6 nM in the test on SW620 cells (K-Ras G12V) (Homo sapiens, SW-620, 144 h).
`C#Cc1c(F)ccc2cc(O)cc(-c3ncc4c(N5CCCOCC5)nc(OCC56CCCN5C[C@@](C)(F)C6)nc4c3F)c12` (single isomer, unassigned) [Compound 32A]: the IC50 in test [1] (Homo sapiens, ASPC1, 144 h) is 150 nM; against K-Ras G12V [2], 62.6 nM; in [3] (Homo sapiens, 2 h), 10.4 nM; in the test with AGS cells (K-Ras G12D) (Homo sapiens, 144 h), 20.6 nM; at K-Ras G12V [4], 1.37 nM; on K-Ras WT [5], 70.4 nM. Also, the half-inhibitory concentration (IC50) was found to be 2.66 nM at K-Ras WT [6]; 30 nM in test [7] (Homo sapiens, SW-620, 2 h); 28.6 nM with SW620 cells (K-Ras G12V) (Homo sapiens, SW-620, 144 h).
With `C#Cc1c(F)ccc2cc(O)cc(-c3ncc4c(N5CCOC[C@H](O)C5)nc(OC[C@@]56CCCN5C[C@H](F)C6)nc4c3F)c12` (single isomer, unassigned) [Compound 46A], the IC50 in test [1] (Homo sapiens, ASPC1, 144 h) came to 2870 nM; against K-Ras G12V [2], 343 nM; in test [3] (Homo sapiens, 2 h) it was 83.9 nM; in the test on AGS cells (K-Ras G12D) (Homo sapiens, 144 h), 187 nM; on K-Ras G12V [4] it was 3.12 nM; at K-Ras WT [5] it was 394 nM. Also, the IC50 on K-Ras WT [6] was found to be 7.95 nM; in test [7] (Homo sapiens, SW-620, 2 h) it was 321 nM; in the test on SW620 cells (K-Ras G12V) (Homo sapiens, SW-620, 144 h) it was 630 nM.
Turning to `C#Cc1c(F)ccc2cc(OC(=O)C34CC5CC(CC(C5)C3)C4)cc(-c3ncc4c(N5CCCOCC5)nc(OC[C@@]56CCCN5C[C@H](F)C6)nc4c3F)c12` [Compound 74, 5-ethynyl-6-fluoro-4-(8-fluoro-2-(((2R,7aS)-2-fluorotetrahydro-1H-pyrrolizin-7a(5H)-yl)methoxy)-4-(1,4-oxazepan-4-yl)pyrido[4,3-d]pyrimidin-7-yl)naphthalen-2-yl adamantane-1-carboxylate trifluoroacetic acid], the figures for the IC50 against K-Ras G12D, at K-Ras G12V [4] and on K-Ras WT [6] were 136 nM, 69.1 nM and 119 nM, respectively.
Turning to `C#Cc1c(F)ccc2cc(O)cc(-c3ncc4c(N5CCOC[C@H](C)C5)nc(OC[C@@]56CCCN5C[C@H](F)C6)nc4c3F)c12` (single isomer, unassigned) [Compound 13B], the IC50 in test [1] (Homo sapiens, ASPC1, 144 h) stood at 43 nM; on K-Ras G12V [2] it was 35.7 nM; in test [3] (Homo sapiens, 2 h) it was 1.1 nM; in the test with AGS cells (K-Ras G12D) (Homo sapiens, 144 h), 6.35 nM; at K-Ras G12V [4], 0.658 nM; on K-Ras WT [5] it was 14.2 nM. Further, the IC50 worked out at 0.76 nM on K-Ras WT [6]; 5.82 nM in [7] (Homo sapiens, SW-620, 2 h); 5.48 nM with SW620 cells (K-Ras G12V) (Homo sapiens, SW-620, 144 h).
Turning to `C#Cc1c(F)ccc2cc(O)cc(-c3ncc4c(N5CCCOCC5)nc(OCC56CCCN5CC(C)(F)C6)nc4c3F)c12` (stereo not shown) [Compound 10, 5-ethynyl-6-fluoro-4-(8-fluoro-2-((2-fluoro-2-methyltetrahydro-1H-pyrrolizin-7a(5H)-yl)methoxy)-4-(1,4-oxazepan-4-yl)pyrido[4,3-d]pyrimidin-7-yl)naphthalen-2-ol], the IC50 is 228 nM in test [1] (Homo sapiens, ASPC1, 144 h); 40.6 nM on K-Ras G12V [2]; 6.71 nM in [3] (Homo sapiens, 2 h); 26.2 nM in the test with AGS cells (K-Ras G12D) (Homo sapiens, 144 h); 1.28 nM on K-Ras G12V [4]; 62.1 nM against K-Ras WT [5]. Besides, the IC50 on K-Ras WT [6] was determined as 2.05 nM; in test [7] (Homo sapiens, SW-620, 2 h), 10.6 nM; in the test with SW620 cells (K-Ras G12V) (Homo sapiens, SW-620, 144 h) it was 10.5 nM.
Regarding `C#Cc1c(F)ccc2cc(OC(=O)C(C)(C)C)cc(-c3ncc4c(N5CCCOCC5)nc(OC[C@@]56CCCN5C[C@H](F)C6)nc4c3F)c12` [Compound 73, 5-ethynyl-6-fluoro-4-(8-fluoro-2-(((2R,7aS)-2-fluorotetrahydro-1H-pyrrolizin-7a(5H)-yl)methoxy)-4-(1,4-oxazepan-4-yl)pyrido[4,3-d]pyrimidin-7-yl)naphthalen-2-yl pivalate trifluoroacetic acid], the results for the IC50 against K-Ras G12D, on K-Ras G12V [4] and at K-Ras WT [6] were 20.7 nM, 18.7 nM and 31.6 nM, respectively.
